Biological target: T1, CD73 (Homo sapiens, UniProt P21589)
T1 sequence (P21589 27-549): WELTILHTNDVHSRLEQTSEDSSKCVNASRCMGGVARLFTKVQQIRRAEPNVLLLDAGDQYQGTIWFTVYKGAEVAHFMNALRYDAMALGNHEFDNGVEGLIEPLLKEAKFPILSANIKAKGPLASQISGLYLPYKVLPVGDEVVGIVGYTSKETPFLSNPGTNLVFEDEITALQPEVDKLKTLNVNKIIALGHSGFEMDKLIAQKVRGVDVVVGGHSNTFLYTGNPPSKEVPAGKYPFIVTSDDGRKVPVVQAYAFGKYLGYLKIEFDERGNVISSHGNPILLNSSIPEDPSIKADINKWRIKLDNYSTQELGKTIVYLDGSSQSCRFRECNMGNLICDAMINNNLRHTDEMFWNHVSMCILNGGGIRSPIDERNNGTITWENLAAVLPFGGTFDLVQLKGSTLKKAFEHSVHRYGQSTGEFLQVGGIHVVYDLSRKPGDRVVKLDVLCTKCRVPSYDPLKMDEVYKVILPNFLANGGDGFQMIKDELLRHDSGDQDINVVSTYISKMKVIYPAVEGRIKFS
Test: Biochemical assay of CD73 inhibition (Malachite Green)
Conditions: CD73 0.3208 nM, AMP 15 μM, Tris-HCl pH 7.4, Malachite Green absorbance readout; read-out: CD73_Biochem
Experimental: Example A1: Biochemical Assay
Assay Reaction Conditions
• Assay Volume: 70 μl • Reaction Volume: 50 μl • CD73: 0.3208 nM • AMP:15 μM • Assay Buffer: 2 5 mM Tris-HCL, pH 7.4, 0.01% Brij-35, 0.01% BSA, 5 mM MgCl2 Assay Procedure:
Made dose titration of testing compounds in assay buffer, 10 points 1/2 log titrations in duplicates starting at 100 μM.
Added 25 µl of CD73 to each well for a final concentration of […].
Incubated at RT for 15 min.
Added 25 µl of AMP to each well for a final concentration of 15 μM.
Incubated at RT for 10 min.
Added […] of Malachite Green Reagent A, incubate at RT for 10 min.
Added […] of Malachite Green Reagent B, incubate at RT for 45 min.
Read the Absorbance on Envision plate reader using excitation filter: Cy5 […].
The ability of the compounds disclosed herein to inhibit CD73 activity was quantified and the respective IC50 values were determined. Table 2 provides the biochemical IC50 values of compounds disclosed herein.

SMILES | IC50 [nM]
CC(CS(C)(=O)=O)(OC[C@H]1O[C@@H](n2ncc3c(NC4CCCC4)nc(Cl)nc32)[C@H](O)[C@@H]1O)P(=O)(O)O (stereo partly drawn) [Example 57, (2-(((2R,3S,4R,5R)-5-(6-chloro-4-(cyclopentylamino)-1H-pyrazolo[3,4-d]pyrimidin-1-yl)-3,4-dihydroxytetrahydrofuran-2-yl)methoxy)-1-(methylsulfonyl)propan-2-yl)phosphonic acid] | 10 to 100
O=P(O)(O)[C@](CO)(COCc1nn[nH]n1)OC[C@H]1O[C@@H](n2ncc3c(NC4CCC4)nc(Cl)nc32)[C@H](O)[C@@H]1O [Example 52, ((R)-1-((1H-tetrazol-5-yl)methoxy)-2-(((2R,3S,4R,5R)-5-(6-chloro-4-(cyclobutylamino)-1H-pyrazolo[3,4-d]pyrimidin-1-yl)-3,4-dihydroxytetrahydrofuran-2-yl)methoxy)-3-hydroxypropan-2-yl)phosphonic acid] | ≤ 10
O=c1[nH]c(COCC(CO)(OC[C@H]2O[C@@H](n3ncc4c(NC5CCCC5)nc(Cl)nc43)[C@H](O)[C@@H]2O)P(=O)(O)O)no1 (stereo partly drawn) [Example 51, (2-(((2R,3S,4R,5R)-5-(6-chloro-4-(cyclopentylamino)-1H-pyrazolo[3,4-d]pyrimidin-1-yl)-3,4-dihydroxytetrahydrofuran-2-yl)methoxy)-1-hydroxy-3-((5-oxo-4,5-dihydro-1,2,4-oxadiazol-3-yl)methoxy)propan-2-yl)phosphonic acid] | ≤ 10
COCC(OC[C@H]1O[C@@H](n2ncc3c(NC4CCCC4)nc(Cl)nc32)[C@H](O)[C@@H]1O)(C(=O)N(C)C)P(=O)(O)O (stereo partly drawn) [Example 15, (2-(((2R,3S,4R,5R)-5-(6-chloro-4-(cyclopentylamino)-1H-pyrazolo[3,4-d]pyrimidin-1-yl)-3,4-dihydroxytetrahydrofuran-2-yl)methoxy)-1-(dimethylamino)-3-methoxy-1-oxopropan-2-yl)phosphonic acid] | 10 to 100
CC(C)CNc1nc(Cl)nc2c1cnn2[C@@H]1O[C@H](CO[C@](CO)(Cc2nn[nH]n2)P(=O)(O)O)[C@@H](O)[C@H]1O [Example 33, ((R)-2-(((2R,3S,4R,5R)-5-(6-chloro-4-(isobutylamino)-1H-pyrazolo[3,4-d]pyrimidin-1-yl)-3,4-dihydroxytetrahydrofuran-2-yl)methoxy)-1-hydroxy-3-(2H-tetrazol-5-yl)propan-2-yl)phosphonic acid] | ≤ 10
O=P(O)(O)C(COCc1nnn[nH]1)(COCC1CC1)OC[C@H]1O[C@@H](n2ncc3c(NC4CCCC4)nc(Cl)nc32)[C@H](O)[C@@H]1O (stereo in doubt) [Example 45, ((S)-1-((1H-tetrazol-5-yl)methoxy)-2-(((2R,3S,4R,5R)-5-(6-chloro-4-(cyclopentylamino)-1H-pyrazolo[3,4-d]pyrimidin-1-yl)-3,4-dihydroxytetrahydrofuran-2-yl)methoxy)-3-(cyclopropylmethoxy)propan-2-yl)phosphonic acid] | ≤ 10
CC(C)CNc1nc(Cl)nc2c1cnn2[C@@H]1O[C@H](COC(CO)(Cc2nn[nH]n2)P(=O)(O)O)[C@@H](O)[C@H]1O (stereo partly drawn) [Example 16, (2-(((2R,3S,4R.,5R)-5-(6-chloro-4-(isobutylamino)-1H-pyrazolo[3,4-d]pyrimidin-1-yl)-3,4-dihydroxytetrahydrofuran-2-yl)methoxy)-1-hydroxy-3-(2H-tetrazol-5-yl)propan-2-yl)phosphonic acid] | ≤ 10
O=P(O)(O)[C@](CO)(Cc1nn[nH]n1)OC[C@H]1O[C@@H](n2ncc3c(NCC4CCC4)nc(Cl)nc32)[C@H](O)[C@@H]1O [Example 19, ((S)-2-(((2R,3S,4R,5R)-5-(6-chloro-4-((cyclobutylmethyl)amino)-1H-pyrazolo[3,4-d]pyrimidin-1-yl)-3,4-dihydroxytetrahydrofuran-2-yl)methoxy)-1-hydroxy-3-(2H-tetrazol-5-yl)propan-2-yl)phosphonic acid] | ≤ 10
O=P(O)(O)[C@@](CO)(COCc1nn[nH]n1)OC[C@H]1O[C@@H](n2ncc3c(NCC4CCC4)nc(Cl)nc32)[C@H](O)[C@@H]1O [Example 58, ((S)-1-((2H-tetrazol-5-yl)methoxy)-2-(((2R,3S,4R,5R)-5-(6-chloro-4-((cyclobutylmethyl)amino)-1H-pyrazolo[3,4-d]pyrimidin-1-yl)-3,4-dihydroxytetrahydrofuran-2-yl)methoxy)-3-hydroxypropan-2-yl)phosphonic acid] | ≤ 10
O=P(O)(O)C(CO)(CCc1nnn[nH]1)OC[C@H]1O[C@@H](n2ncc3c(NC4CCCC4)nc(Cl)nc32)[C@H](O)[C@@H]1O (stereo partly drawn) [Example 18, (2-(((2R,3S,4R,5R)-5-(6-chloro-4-(cyclopentylamino)-1H-pyrazolo[3,4-d]pyrirnidin-1-yl)-3,4-dihydroxytetrahydrofuran-2-yl)methoxy)-1-hydroxy-4-(1H-tetrazol-5-yl)butan-2-yl)phosphonic acid] | ≤ 10
CC(C)CNc1nc(Cl)nc2c1cnn2[C@@H]1O[C@H](CO[C@@](CO)(Cc2nn[nH]n2)P(=O)(O)O)[C@@H](O)[C@H]1O [Example 32, ((S)-2-(((2R,3S,4R,5R)-5-(6-chloro-4-(isobutylamino)-1H-pyrazolo[3,4-d]pyrimidin-1-yl)-3,4-dihydroxytetrahydrofuran-2-yl)methoxy)-1-hydroxy-3-(2H-tetrazol-5-yl)propan-2-yl)phosphonic acid] | 10 to 100
COC[C@](Cc1nn[nH]n1)(OC[C@H]1O[C@@H](n2ncc3c(NC(C)C)nc(Cl)nc32)[C@H](O)[C@@H]1O)P(=O)(O)O [Example 31, ((R)-2-(((2R,3S,4R,5R)-5-(6-chloro-4-(isopropylamino)-1H-pyrazolo[3,4-d]pyrimidin-1-yl)-3,4-dihydroxytetrahydrofuran-2-yl)methoxy)-1-methoxy-3-(2H-tetrazol-5-yl)propan-2-yl)phosphonic acid] | ≤ 10
O=c1[nH]c(C[C@](CO)(OC[C@H]2O[C@@H](n3ncc4c(NC5CCCC5)nc(Cl)nc43)[C@H](O)[C@@H]2O)P(=O)(O)O)no1 [Example 27, ((S)-2-(((2R,3S,4R,5R)-5-(6-chloro-4-(cyclopentylamino)-1H-pyrazolo[3,4-d]pyrimidin-1-yl)-3,4-dihydroxytetrahydrofuran-2-yl)methoxy)-1-hydroxy-3-(5-oxo-4,5-dihydro-1,2,4-oxadiazol-3-yl)propan-2-yl)phosphonic acid] | ≤ 10
COC[C@](Cc1nn[nH]n1)(OC[C@H]1O[C@@H](n2ncc3c(NCC(C)C)nc(Cl)nc32)[C@H](O)[C@@H]1O)P(=O)(O)O [Example 35, ((R)-2-(((2R,3S,4R,5R)-5-(6-chloro-4-(isobutylamino)-1H-pyrazolo[3,4-d]pyrimidin-1-yl)-3,4-dihydroxytetrahydrofuran-2-yl)methoxy)-1-methoxy-3-(2H-tetrazol-5-yl)propan-2-yl)phosphonic acid] | ≤ 10
COC[C@](OC[C@H]1O[C@@H](n2ncc3c(NC4CCCC4)nc(Cl)nc32)[C@H](O)[C@@H]1O)(C(=O)NO)P(=O)(O)O [Example 36, ((R)-2-(((2R,3S,4R,5R)-5-(6-chloro-4-(cyclopentylamino)-1H-pyrazolo[3,4-d]pyrimidin-1-yl)-3,4-dihydroxytetrahydrofuran-2-yl)methoxy)-1-(hydroxyamino)-3-methoxy-1-oxopropan-2-yl)phosphonic acid] | ≤ 10
O=c1[nH]c(C[C@@](CO)(OC[C@H]2O[C@@H](n3ncc4c(NC5CCCC5)nc(Cl)nc43)[C@H](O)[C@@H]2O)P(=O)(O)O)no1 [Example 26, ((R)-2-(((2R,3S,4R,5R)-5-(6-chloro-4-(cyclopentylamino)-1H-pyrazolo[3,4-d]pyrimidin-1-yl)-3,4-dihydroxytetrahydrofuran-2-yl)methoxy)-1-hydroxy-3-(5-oxo-4,5-dihydro-1,2,4-oxadiazol-3-yl)propan-2-yl)phosphonic acid] | ≤ 10
COC[C@](COCC(=O)O)(OC[C@H]1O[C@@H](n2ncc3c(NC4CCCC4)nc(Cl)nc32)[C@H](O)[C@@H]1O)P(=O)(O)O [Example 10] | 10 to 100
O=P(O)(O)[C@](CO)(Cc1nn[nH]n1)OC[C@H]1O[C@@H](n2ncc3c(NCc4ccccc4Cl)nc(Cl)nc32)[C@H](O)[C@@H]1O (single isomer, unassigned) [Example 4] | 10 to 100
O=P(O)(O)[C@@](CO)(Cc1nn[nH]n1)OC[C@H]1O[C@@H](n2ncc3c(NCc4ccccc4Cl)nc(Cl)nc32)[C@H](O)[C@@H]1O (single isomer, unassigned) [Example 3] | ≤ 10
